Measured values reported in paper PMC6832239, “The Effects of a Novel Series of KTTKS Analogues on Cytotoxicity and Proteolytic Activity” (Molecules, 2019).
Like-named read-outs stand apart in the source and are kept apart here.

Experiments:
urokinase = target: T1, urokinase (Homo sapiens, UniProt P00749); assay: Amidolytic activity of urokinase (chromogenic substrate pyro-Glu-Gly-Arg-pNA); assay type: biochemical; settings: amidolytic activity; Tris pH 8.8, 37 °C; IC50 by extrapolation using a linear plot; error 5%; read-out: IC50 Urokinase
T1 construct: purchased Sigma (Schnelldorf, Germany)
Procedure: (§1) The determination of amidolytic activity was performed as previously described by Okada. A detailed description of the method is given below: 0.2 mL of the examined peptides (0.15 M NaCl as contro), a buffer, and 0.1 mL of enzyme solution were mixed. The final peptide concentrations were: 0.2 mM, 2 mM, and 20 mM. The mixture was incubated at 37 °C for 3 min; then the synthetic substrate solution was added in the same buffer. After 20 min of incubation, the reaction was stopped by adding 0.1 mL of 50% acetic acid and the absorbance of the released p-nitroaniline was measured at 405 nm. The mean values from three independent experiments done in duplicate are presented. A method error of 5% was adopted as statistical error. IC50 value was considered as the concentration of inhibitor that reduces absorbance by 50%, compared with absorbance measured under the same conditions without an inhibitor. IC50 was calculated mathematically by extrapolation using a linear plot. IC50 values are presented in Table 1 and Table 2, and graphically in Figure 1.
(§2) The buffers and the enzyme solutions included: • Tris buffer—0.6 mL (pH 8.8), enzyme: urokinase (50 units/mL), synthetic substrate: pyro-Glu-Gly-Arg-pNA·HCl (0.1 mL, 3 mM); • Tris buffer—0.5 mL (pH 8.4), enzyme: thrombin (1 units/mL), synthetic substrate: H-D-Phe-Pip-Arg-pNA (0.2 mL, 0.75 mM); • Tris buffer—0.5 mL (pH 7.4), enzyme: plasmin (0.4 units/mL), synthetic substrate: H-D-Val-Leu-Lys-pNA (0.2 mL, 3 mM); • Borate buffer—0.5 mL (pH 7.5), enzyme: trypsin (0.4 units/mL), synthetic substrate: Bzl-L-Arg-pNA·HCl (0.2 mL, 8 mM); • Tris buffer—0.6 mL (pH 9.0), enzyme: kallikrein (3 units/mL), synthetic substrate: H-D-Val-Leu-Arg-pNA·2HCl (0.1 mL, 75 mM); • Tris buffer—0.6 mL (pH 8.4), enzyme: t-PA ([…]), synthetic substrate: H-D-Ile-Pro-Arg-pNA (0.1 mL, 10 mM) • Tris buffer—0.6 mL (pH 9.0), enzyme: chymotrypsin (0.4 units/mL), synthetic substrate: Suc-Phe-pNA (0.2 mL, 8 mM)

plasmin = target: T2, plasmin (Homo sapiens, UniProt P00747); assay: Amidolytic activity of plasmin (chromogenic substrate H-D-Val-Leu-Lys-pNA); assay type: biochemical
T2 construct: purchased Chromogenix (Milano, Italy)
Procedure: as §1, §2

[1] = Viability of fibroblast cells, MTT assay; assay type: cell-based, Human; settings: human, primary dermal fibroblast cells, 24 h, MTT, ± 2, read-out: Viability of fibroblast cells
Procedure: Viability of fibroblast cells was examined with the use of the MTT assay. MTT, a yellow tetrazole, is reduced to purple formazan only in living cells. Absorbance of the coloured solution was measured by a spectrophotometer.
These studies were performed on primary dermal fibroblasts cells. The cells were maintained in DMEM supplemented with 10% fetal bovine serum (FBS), 2 mM glutamin, 50 U/mL penicillin and […] streptomycin at 37 °C in a 5% CO2 incubator. For experiments, cells cultures were plated at a density of 1 × 10^6/well in six-well culture plates (Costar, St. Louis, MO, USA) in 2 mL of growth medium. Cells reached about 80% of confluency at day 2 were used for the assays.
Toxicity of the tested substances was determined using an MTT [3-(4,5-dimethylthiazol-2-yl)-2,5-diphenyltetrazolium bromide)] assay. Palmitoyl and lipoyl peptides were dissolved in DMSO (dimethyl sulfoxide), the other peptides in DMEM, and added to the cell culture medium. Simultaneously, the same concentrations of DMSO without peptides were added to cells, serving as controls. The final peptide concentrations were: 1 μM, 10 μM, and 100 μM. After 24 h incubation, the cells cultured with the tested compounds were washed with phosphate-buffered saline (PBS) and then incubated for 4 h in 2 mL of MTT solution (5 mg/mL). After removing the medium, the cells were lysed in 200 μL of DMSO with 20 μL of Sorensen’s buffer (pH 10.5, 0.1 mol/L glycine with 0.1 mol/L NaCl). The absorbance of converted dye in living cells was measured at a wavelength of 570 nm. The mean values ± SD from three independent experiments done in duplicate are presented.

thrombin = target: T3, thrombin (Bos taurus, UniProt P00735); assay: Amidolytic activity of thrombin (chromogenic substrate H-D-Phe-Pip-Arg-pNA); assay type: biochemical; settings: amidolytic activity; Tris pH 8.4, 37 °C; IC50 by extrapolation using a linear plot; error 5%; read-out: IC50 Thrombin
T3 construct: purchased Lubelska Wytwórnia Szczepionek (Lublin, Poland)
Procedure: The determination of amidolytic activity was performed as previously described by Okada. A detailed description of the method is given below: 0.2 mL of the examined peptides (0.15 M NaCl as contro), a buffer, and 0.1 mL of enzyme solution were mixed. The final peptide concentrations were: 0.2 mM, 2 mM, and 20 mM. The mixture was incubated at 37 °C for 3 min; then the synthetic substrate solution was added in the same buffer. […] The mean values from three independent experiments done in duplicate are presented. A method error of 5% was adopted as statistical error. […] IC50 was calculated mathematically by extrapolation using a linear plot.

[2] = amidolytic activity, Tris pH 7.4, 37 °C, IC50 by extrapolation using a linear plot, error 5%, read-out: IC50 Plasmin
[3] = converted from IC50 of Table 1, read-out: -logIC50 Plasmin (converted)

T2 sequence (P00747 581-810 limits assumed): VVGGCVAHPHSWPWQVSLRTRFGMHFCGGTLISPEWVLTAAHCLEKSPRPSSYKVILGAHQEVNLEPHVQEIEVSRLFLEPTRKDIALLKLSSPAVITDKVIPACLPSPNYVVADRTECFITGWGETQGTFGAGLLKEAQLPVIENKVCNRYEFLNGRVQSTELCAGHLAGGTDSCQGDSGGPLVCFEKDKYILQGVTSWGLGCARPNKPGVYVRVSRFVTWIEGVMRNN
T2 sequence (P00747 97-580 partner limits assumed): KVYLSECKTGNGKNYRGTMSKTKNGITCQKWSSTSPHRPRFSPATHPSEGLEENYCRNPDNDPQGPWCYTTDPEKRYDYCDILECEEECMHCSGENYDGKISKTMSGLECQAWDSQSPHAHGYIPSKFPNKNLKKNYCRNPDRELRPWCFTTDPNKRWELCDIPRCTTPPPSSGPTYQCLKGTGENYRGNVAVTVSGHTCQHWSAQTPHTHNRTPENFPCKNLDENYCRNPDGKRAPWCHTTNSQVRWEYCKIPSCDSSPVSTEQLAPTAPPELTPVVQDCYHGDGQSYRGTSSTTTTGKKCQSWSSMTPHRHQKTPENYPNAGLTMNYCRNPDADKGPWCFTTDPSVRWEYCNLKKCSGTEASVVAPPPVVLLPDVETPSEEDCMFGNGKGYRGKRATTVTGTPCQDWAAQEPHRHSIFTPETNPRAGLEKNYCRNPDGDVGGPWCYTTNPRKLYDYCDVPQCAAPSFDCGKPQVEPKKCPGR

| IC50 (urokinase) [mM] | IC50 (plasmin; [2]) [mM] | IC50 (thrombin) [mM] | IC50 (plasmin; [3]) [mM] | Substance | viability at 24 h, 1 µmol/L [1] [%] | viability at 24 h, 10 µmol/L [1] [%] | viability at 24 h, 100 µmol/L [1] [%] |
| --- | --- | --- | --- | --- | --- | --- | --- |
| 12.1 ± 0.6 | 5 ± 0.25 | 1.59 ± 0.08 |  | Ac-RTTKS-NH2 [Peptide 30, Ac-Arg-Thr-Thr-Lys-Ser- NH2] | 95 | 105 | 101 |
| 7.95 ± 0.4 | 0.3 ± 0.015 | 2.43 ± 0.12 | 0.309 | H-RTTKS-NH2 [Peptide 29, H-Arg-Thr-Thr-Lys-Ser-NH2] | 101 | 111 | 110 |
| < 0.2 | 0.54 ± 0.027 | 2.51 ± 0.13 |  | H-RTTKS-OH [Peptide 25, H-Arg-Thr-Thr-Lys-Ser-OH] | 97 | 87 | 109 |

The remaining lines, values behind:

| Substance | IC50 (urokinase) [mM] | IC50 (plasmin; [2]) [mM] | IC50 (thrombin) [mM] | IC50 (plasmin; [3]) [mM] | viability at 24 h, 1 µmol/L [1] [%] | viability at 24 h, 10 µmol/L [1] [%] | viability at 24 h, 100 µmol/L [1] [%] |
| --- | --- | --- | --- | --- | --- | --- | --- |
| Ac-RTTRS-NH2 [Peptide 22, Ac-Arg-Thr-Thr-Arg-Ser-NH2] | > 20 | 9.08 ± 0.45 | 1.47 ± 0.074 |  | 102 | 99 | 101 |
| Ac-RTTRS-OH [Peptide 18, Ac-Arg-Thr-Thr-Arg-Ser-OH] | 3.24 ± 0.16 | 8.81 ± 0.44 | 3.12 ± 0.16 | 8.91 | 88 | 103 | 107 |
| H-KTTKS-NH2 [Peptide 5, H-Lys-Thr-Thr-Lys-Ser-NH2] | 9.15 ± 0.46 | 0.53 ± 0.026 | 7.04 ± 0.35 |  | 91 | 91 | 100 |
| H-RTTRS-NH2 [Peptide 21, H-Arg-Thr-Thr-Arg-Ser-NH2] | 12 ± 0.59 | 0.44 ± 0.022 | 2.93 ± 0.14 |  | 84 | 94 | 103 |
